System: homologous passive cutaneous anaphylaxis (PCA) reaction
Test: Effect on homologous passive cutaneous anaphylaxis (PCA) reaction in rats
Type: in vivo, rat (male wistar)
Conditions: Rattus norvegicus, 1 hour before induction; for inhibition in vivo at 100 mg/kg: test compounds, 100 mg/kg oral
Description: Effect on homologous passive cutaneous anaphylaxis (PCA) reaction in rats
This experimental animal model is caused by immediate type allergic reaction, namely, antigen-antibody reaction. In the following, the method of this pharmacological test will be explained.
Method: Male wistar rats (9 weeks old) were intradermally administered 0.05 ml of anti-serum against dinitrophenylated ascaris (DNP-As) into two sites on the shaved dorsal skin. 48 hours later, quinolinone derivatives (test compounds) suspended in 0.5% methylcellulose (MC) were given orally at a dose of 100 mg/kg to the animals. 1 hour after administration of Test compounds, the animals were induced anaphylaxis by injection of saline (1 ml) dissolving 1 mg of trinitrophenylated ascaris (TNP-As) and 5 mg of Evans Blue into the tail vein of the animals. 30 minutes after induction of anaphylaxis, animals were anesthetized by ether and killed by bleeding, and were flayed dorsal skin. The leakage of dye was assessed by measuring the diameter (mean of shortest and longest diameter) of the blue spot on the inside surface of dorsal skin. As vehicle control group, only 0.5% MC solution was administered orally, and as positive control group, Tranilast suspended in 0.5% MC were administered orally at a dose of 200 mg/kg to the animals with the same method as the test compounds groups. Each experimental group consisted of 5 rats. In the conditions of this experinent, it was considered that the compound, which inhibited PCA reaction by over forty (40) percent against that in vehicle control group, was evidently effective for immediate type allergy.
Inhibition (%)=(A-B)/A×100 (Equation 1)
A: leakage of dye in vehicle control group
B: leakage of dye in test compound group or positive control group

| SMILES | inhibition in vivo at 100 mg/kg | inhibition in vivo at 200 mg/kg (positive control, 200 mg/kg oral) |
| --- | --- | --- |
| CCOc1c(O)c2c(N)cccc2n(C)c1=O [Compound 23, 5-amino-3-ethoxy-4-hydroxy-1-methyl-2(1H)-quinolinone] | 40% |  |
| Cn1c(=O)c(Oc2ccccc2)c(O)c2cc(N)ccc21 [Compound 24, 6-amino-3-phenoxy-4-hydroxy-1-methyl-2(1H)-quinolinone] | 42% |  |
| CC(=O)Nc1ccc2c(c1)c(O)c(Oc1ccccc1)c(=O)n2C [Compound 26, 6-acetylamino-3-phenoxy-4-hydroxy-1-methyl-2(1H)-quinolinone] | 39% |  |
| CCCCCCCCn1c(=O)c(Oc2ccccc2)c(O)c2cc(-c3ccccc3)ccc21 [Compound 34, 6-phenyl-3-phenoxy-4-hydroxy-1-octyl-2(1H)-quinolinone] | 37% |  |
| COc1c(O)c2c(O)cc(O)cc2n(C)c1=O [Compound 36, 5,7-dihydroxy-3-methoxy-4-hydroxy-1-methyl-2(1H)-quinolinone] | 45% |  |
| CCCCOc1c(O)c2c(C(=O)OCC)cccc2n(C)c1=O [Compound 38, 5-ethoxycarbonyl-3-butoxy-4-hydroxy-1-methyl-2(1H)-quinolinone] | 45% |  |
| CCOc1c(O)c2c(N)cccc2n(C/C=C(\C)CCC=C(C)C)c1=O [Compound 44, 5-amino-3-ethoxy-4-hydroxy-1-geranyl-2(1H)-quinolinone] | 42% |  |
| CC(C)=CCC/C(C)=C/COc1c(O)c2cccc(N)c2n(C)c1=O [Compound 45, 8-amino-3-geranyloxy-4-hydroxy-1-methyl-2(1H)-quinolinone] | 46% |  |
| CCCCCCCCCCNc1ccc2c(c1)c(O)c(OC)c(=O)n2C [Compound 49, 6-decylamino-3-methoxy-4-hydroxy-1-methyl-2(1H)-quinolinone] | 50% |  |
| COc1c(O)c2cc(NC/C=C(\C)CCC=C(C)C)ccc2n(C)c1=O [Compound 52, 6-geranylamino-3-methoxy-4-hydroxy-1-methyl-2(1H)-quinolinone] | 49% |  |
| CCCCNc1cccc2c(O)c(OC/C=C(\C)CCC=C(C)C)c(=O)n(C)c12 [Compound 53, 8-butylamino-3-geranyloxy-4-hydroxy-1-methyl-2(1H)-quinolinone] | 45% |  |
| CCCCCCCCCCOc1ccc2c(c1)c(O)c(OC)c(=O)n2C [Compound 54, 6-decyloxy-3-methoxy-4-hydroxy-1-methyl-2(1H)-quinolinone] | 50% |  |
| COc1c(O)c2cc(C/C=C(\C)CCC=C(C)C)ccc2n(C)c1=O [Compound 61, 6-geranyl-3-methoxy-4-hydroxy-1-methyl-2(1H)-quinolinone] | 42% |  |
| CCCCCCCCCCOC(=O)c1cccc2c1c(O)c(OCCCC)c(=O)n2C [Compound 68, 5-decyloxycarbonyl-3-butoxy-4-hydroxy-1-methyl-2(1H)-quinolinone] | 49% |  |
| CCCCCCCCOc1c(O)c2ccc(NC(C)=O)cc2n(C)c1=O [Compound 76, 7-acetylamino-3-octyloxy-4-hydroxy-1-methyl-2(1H)-quinolinone] | 51% |  |
| CCCCCCCCOc1c(O)c2c(NC(=O)/C=C/c3cc(OC)c(O)c(OC)c3)cccc2n(C)c1=O [Compound 77, 5-[(3,5-dimethoxy-4-hydroxycinnamoyl)amino]-3-octyloxy-4-hydroxy-1-methyl-2(1H)-quinolinone] | 55% |  |
| CCCCCCCCOc1c(O)c2cc(NC(=O)/C=C/c3cc(OC)c(O)c(OC)c3)ccc2n(C)c1=O [Compound 78, 6-[(3,5-dimethoxy-4-hydroxycinnamoyl)amino]-3-octyloxy-4-hydroxy-1-methyl-2(1H)-quinolinone] | 50% |  |
| CCCCCCCCOc1c(O)c2cccc(NC(=O)/C=C/c3cc(OC)c(O)c(OC)c3)c2n(C)c1=O [Compound 79, 8-[(3,5-dimethoxy-4-hydroxycinnamoyl)amino]-3-octyloxy-4-hydroxy-1-methyl-2(1H)-quinolinone] | 49% |  |
| CCCCOc1c(O)c2cc(C(=O)OCC)ccc2n(C)c1=O [Compound 80, 6-ethoxycarbonyl-3-butoxy-4-hydroxy-1-methyl-2(1H)-quinolinone] | 41% |  |
| CCCCOc1c(O)c2cccc(C(=O)Oc3ccccc3)c2n(C)c1=O [Compound 83, 8-phenoxycarbonyl-3-butoxy-4-hydroxy-1-methyl-2(1H)-quinolinone] | 42% |  |
| CCCCCCCCOc1cccc2c1c(O)c(OC)c(=O)n2C [Compound 84, 5-octyloxy-3-methoxy-4-hydroxy-1-methyl-2(1H)-quinolinone] | 49% |  |
| CCCCCCOc1c(O)c2cccc(OCCCCCC)c2n(C)c1=O [Compound 85, 3,8-dihexyloxy-4-hydroxy-1-methyl-2(1H)-quinolinone] | 50% |  |
| CCCCCCCCOc1c(O)c2cccc(NC)c2n(C)c1=O [Compound 86, 8-methylamino-3-octyloxy-4-hydroxy-1-methyl-2(1H)-quinolinone] | 53% |  |
| COc1ccc(/C=C/C(=O)Nc2ccccc2C(=O)O)cc1OC [Tranilast, reference compound] |  | 52% |
